Where two headings read alike, the source gives them in different places.
Columns and labels:
[1] = target: T1, DMBT1pbs1 (Homo sapiens, UniProt Q9UGM3); assay type: binding; set-up: key: +++: no difference in aggregation compared to reference; ++: moderate inhibition of aggregation over the entire time course or maximal aggregation delayed by 1-5-min compared to reference; +: strong inhibition of aggregation over the entire time course or maximal aggregation delayed by 5-10 min compared to reference; −: complete inhibition of aggregation after 10 min
T1 construct: purchased Eurogentec, Belgium
Procedure: Streptococcus mutans (Ingbritt), Streptococcus gordonii (HG 222 and DSM20568), Escherichia coli (F7 and OM36-1), and Helicobacter pylori (ATCC 43504) were gown and processed as described earlier. Salmonella typhimurium (strain SF1399: wild type; strain SF1195: Rc chemotype; strain SF1567: Rd1 chemotype; strain SF1398: Re chemotype) were kindly provided by Dr. Ben Appelmelk from the Free University of Amsterdam, The Netherlands, and were grown and processed as previously described for E. coli. The bacteria were diluted in the buffers depicted previously to a final OD700 of 0.5 or 1.0 corresponding to about 0.5 and 1.0×10^9 cells/ml respectively.
For quantitative measurements of bacterial aggregation, we added 200 μl peptide stock solution (1 mg/ml in 10% DMSO) diluted with 300 μl TBS containing 0.1% v/v Tween 20 and 1 mM CaCl2 (TBS-TC) to 500 μl of the respective bacterial suspensions to obtain final peptide concentrations of […]. As controls, we used bacterial suspensions, to which 200 μl 10% (v/v %) DMSO in H2O and 300 μl TBS-TC were added. Bacterial aggregation was monitored by measuring the optical density at 700 nm in intervals of 1 min for 1 h in a spectrophotometer (UVICON 930, Kontron Instruments). For the semi-quantitative high-throughput competition assays, we first determined the allowed pH range for DMBT1pbs1-mediated aggregation of S. gordonii and E. coli by using TBS-TC adjusted with either HCl or NaOH. […] For monitoring competitive effects, we preincubated 20 μl of the DMBT1pbs1 stock solution (20 μg) with 20 μl of the respective substance solutions in 48-well microtiter plates at room temperature (RT) for 2 min. As reference served 20 μl 10% (v/v) DMSO solution in H2O mixed with 20 μl of the solvents of the respective substances. Afterwards, 100 μl of S. gordonii or E. coli (resuspended in TBS-TC or TBS-T, respectively, for the calcium-free assays) solution was added simultaneously to each well using a multichannel pipette. Bacterial aggregation was compared to the reference by visual inspection over a time course of 10 min. The scoring system was: (+++) no difference in aggregation compared to reference. (++) moderate inhibition of aggregation over the entire time course or maximal aggregation delayed by 1-5-min compared to reference; (+) strong inhibition of aggregation over the entire time course or maximal aggregation delayed by 5-10 min compared to reference; (−) complete inhibition of aggregation after 10 min. Each experiment was at least done in triplicate.
Sucrose, maltose, dextrose, and the various salts tested were standard reagents obtained from Merck or Sigma. […] The following substances were obtained from Sigma with catalogue numbers in brackets: heparansulfate (H-7640), chondroitinsulfate B (C-3788), azoxymethane (A-9517), N-nitrosodiethlylamine (N-0258), streptococcus sanguis LTA (L-3765), Staphylococcus aureus LTA (L-2515), Escherichia coli LPS (L-3012), Klebsiella pneumoniae LPS (L-1770), Salmonella typhimurium LPS (L-6511), Salmonella minnesota LPS (chemotype Rd1; L-9391), L-α-phosphatidylcholine (P-279), CUROSURF™ with 80 mg/ml phospholipids from pig surfactant (54 mg/ml phosphatidylcholine and 30-5 mg/ml D-palmitoylphosphatidylcholine; overall: 99% polar phospholipids and 1% proteins) was obtained from Dey (Napa; Italy), and sIgA was purchased from Sigma. The dNTPs and the dNTP-Mix were from Roche Diagnostics. The DNA used in all experiments was the 4.7-kb plasmid pEGFP-N1 from Clontech.

[2] = system: Salmonella typhimurium; assay: Salmonella typhimurium binding to immobilized DMBT1 or peptide; conditions: Rd1 and Re chemotype versus wild type
Procedure: Salivary DMBT1 (salivary agglutinin; DMBT1^SAG; hereafter referred to as DMBT1) was obtained from parotid saliva of healthy volunteer donors collected with Lashley cups. For confirmatory experiments of DMBT1 interaction partners, initial studies with Salmonella strains, and HIV studies we used DMBT1 purified to about 95% homogeneity by the procedure described before. The concentration was determined by the BCA Protein Assay Kit (Pierce) according to the instructions of the manufacturer. […] For partial purification, 50 ml parotid saliva was incubated for 0.5 to 1 h in ice water, in order to promote the formation of a precipitate. After centrifugation for 20 min (4° C.; 5,000 g), the pellet was resuspended in 1.0 to 2.5 ml PBS. In order to determine the DMBT1 concentrations within the samples, serial dilutions of the preparations were compared to serial dilutions of purified recombinant DMBT1 (rDMBT1) by ELISA and the adjusted concentrations were confirmed by Western blotting (see below).
Streptococcus mutans (Ingbritt), Streptococcus gordonii (HG 222 and DSM20568), Escherichia coli (F7 and OM36-1), and Helicobacter pylori (ATCC 43504) were gown and processed as described earlier. […]

[3] = target: T2, rDMBT1 binding to HIV-gp120 (Homo sapiens, UniProt Q9UGM3, G1295S/L1336F/T649M); assay: Effects of DSS and dextran on rDMBT1 binding to HIV-gp120; conditions: 100 μg/ml DSS or dextran; rDMBT1 2 μg/ml; gp120 1 μg/ml
T2 construct: made in house; host or cells: rDMBT1 from T-REx-CHO
T2 sequence (Q9UGM3 20-2413 T649M/G1295S/L1336F): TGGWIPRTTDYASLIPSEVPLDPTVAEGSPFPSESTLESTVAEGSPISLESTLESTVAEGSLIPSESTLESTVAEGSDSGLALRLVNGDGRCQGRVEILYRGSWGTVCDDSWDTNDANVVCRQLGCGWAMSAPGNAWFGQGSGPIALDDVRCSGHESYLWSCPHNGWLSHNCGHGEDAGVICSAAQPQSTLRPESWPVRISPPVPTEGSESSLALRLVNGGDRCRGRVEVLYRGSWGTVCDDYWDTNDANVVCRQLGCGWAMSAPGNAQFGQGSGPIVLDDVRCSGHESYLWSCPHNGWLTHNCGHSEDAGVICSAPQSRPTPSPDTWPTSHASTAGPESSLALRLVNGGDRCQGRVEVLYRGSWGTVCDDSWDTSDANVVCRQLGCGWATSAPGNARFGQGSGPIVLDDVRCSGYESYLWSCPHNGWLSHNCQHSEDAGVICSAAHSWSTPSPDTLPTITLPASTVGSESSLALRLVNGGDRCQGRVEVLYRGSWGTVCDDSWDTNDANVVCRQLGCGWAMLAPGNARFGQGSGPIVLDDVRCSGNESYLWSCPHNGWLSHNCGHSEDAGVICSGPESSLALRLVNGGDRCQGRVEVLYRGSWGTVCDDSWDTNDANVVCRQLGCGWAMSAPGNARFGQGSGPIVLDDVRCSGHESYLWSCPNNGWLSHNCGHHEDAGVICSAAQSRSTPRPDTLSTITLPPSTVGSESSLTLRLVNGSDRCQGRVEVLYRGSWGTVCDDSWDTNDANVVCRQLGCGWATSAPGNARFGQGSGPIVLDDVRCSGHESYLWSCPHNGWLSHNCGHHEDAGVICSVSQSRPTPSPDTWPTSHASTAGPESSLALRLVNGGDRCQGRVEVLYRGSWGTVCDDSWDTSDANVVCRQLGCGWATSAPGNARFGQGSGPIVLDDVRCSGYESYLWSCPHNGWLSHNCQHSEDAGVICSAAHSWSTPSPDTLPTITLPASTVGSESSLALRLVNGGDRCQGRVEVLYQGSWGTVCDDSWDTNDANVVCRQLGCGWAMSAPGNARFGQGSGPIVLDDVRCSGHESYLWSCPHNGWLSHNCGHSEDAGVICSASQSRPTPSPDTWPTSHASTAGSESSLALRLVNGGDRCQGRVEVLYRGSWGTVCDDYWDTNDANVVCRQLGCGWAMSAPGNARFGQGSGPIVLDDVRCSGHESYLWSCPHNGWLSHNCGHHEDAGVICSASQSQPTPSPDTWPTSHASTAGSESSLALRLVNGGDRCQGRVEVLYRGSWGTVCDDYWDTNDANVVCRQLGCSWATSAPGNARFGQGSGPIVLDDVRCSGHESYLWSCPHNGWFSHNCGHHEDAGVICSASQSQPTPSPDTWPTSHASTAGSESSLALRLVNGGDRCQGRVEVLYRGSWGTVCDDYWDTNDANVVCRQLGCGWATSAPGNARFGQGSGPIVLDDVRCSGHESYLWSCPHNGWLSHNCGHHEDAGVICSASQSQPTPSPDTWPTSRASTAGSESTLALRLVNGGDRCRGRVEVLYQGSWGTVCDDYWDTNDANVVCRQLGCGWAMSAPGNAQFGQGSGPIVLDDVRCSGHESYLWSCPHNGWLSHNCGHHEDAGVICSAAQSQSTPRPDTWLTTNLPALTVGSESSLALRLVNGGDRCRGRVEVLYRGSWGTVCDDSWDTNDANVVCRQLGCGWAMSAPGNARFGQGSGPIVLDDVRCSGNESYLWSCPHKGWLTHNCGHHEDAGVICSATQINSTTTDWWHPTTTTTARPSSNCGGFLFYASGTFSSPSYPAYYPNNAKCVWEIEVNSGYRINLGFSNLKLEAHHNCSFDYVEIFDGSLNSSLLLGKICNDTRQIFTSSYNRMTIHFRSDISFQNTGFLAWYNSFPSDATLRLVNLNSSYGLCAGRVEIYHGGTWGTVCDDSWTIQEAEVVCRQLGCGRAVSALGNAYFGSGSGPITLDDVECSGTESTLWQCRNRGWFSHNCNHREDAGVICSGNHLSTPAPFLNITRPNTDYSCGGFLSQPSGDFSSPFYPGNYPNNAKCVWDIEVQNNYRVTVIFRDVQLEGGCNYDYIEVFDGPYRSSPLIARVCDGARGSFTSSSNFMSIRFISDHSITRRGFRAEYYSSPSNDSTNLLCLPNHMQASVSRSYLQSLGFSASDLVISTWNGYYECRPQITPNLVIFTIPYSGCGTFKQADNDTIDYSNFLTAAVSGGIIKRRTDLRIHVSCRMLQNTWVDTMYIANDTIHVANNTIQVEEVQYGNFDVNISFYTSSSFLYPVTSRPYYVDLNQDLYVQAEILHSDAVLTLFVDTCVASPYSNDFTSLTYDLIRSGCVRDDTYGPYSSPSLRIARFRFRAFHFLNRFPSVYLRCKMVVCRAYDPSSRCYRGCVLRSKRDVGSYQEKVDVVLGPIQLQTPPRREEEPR
Source text: Values are means of five independent experiments.

[Cl-].[Na+] [NaCL]
Aggregation of E. coli [1]: +++ and + | Aggregation of S. gordonii [1]: +++ and +

DMBT1: purified DMBT1 from saliva (salivary agglutinin)
binding of Salmonella typhimurium chemotypes [2]: Enhanced binding of the Rd1 and Re chemotype

OC[C@H]1O[C@H](O[C@H]2[C@H](O)[C@@H](O)C(O)O[C@@H]2CO)[C@H](O)[C@@H](O)[C@@H]1O (mixture of isomers) [Maltose]
Aggregation of E. coli ([1]; substance 1-500 mM, pH co): +++ | Aggregation of S. gordonii ([1]; substance 1-500 mM, pH co): +++

O=P([O-])([O-])[O-].[Na+].[Na+].[Na+] [Na3PO4]
Aggregation of E. coli ([1]; substance 1 mM, pH co): ++ | Aggregation of S. gordonii ([1]; substance 1 mM, pH co): ++

O=S(=O)([O-])[O-].[Na+].[Na+] [Na2SO4]
Aggregation of E. coli ([1]; substance 1 mM, pH co): + | Aggregation of S. gordonii ([1]; substance 1 mM, pH co): + | Aggregation of E. coli ([1]; substance 50-500 mM, pH co): − | Aggregation of S. gordonii ([1]; substance 50-500 mM, pH co): −

Cc1cn([C@H]2C[C@H](O)[C@@H](COP(=O)(O)OP(=O)(O)OP(=O)(O)O)O2)c(=O)[nH]c1=O [dTTP]
Aggregation of E. coli ([1]; substance 1-8 mM, pH co): ++ | Aggregation of S. gordonii ([1]; substance 1-8 mM, pH co): ++

O=P([O-])([O-])O.[K+].[K+] [K2HPO4]
Aggregation of E. coli ([1]; substance 1 mM, pH co): ++ | Aggregation of S. gordonii ([1]; substance 1 mM, pH co): ++

O=[N+]([O-])[O-].[K+] [KNO3]
Aggregation of E. coli ([1]; substance 500 mM, pH co): + | Aggregation of S. gordonii ([1]; substance 500 mM, pH co): + | Aggregation of E. coli ([1]; substance 1-100 mM, pH co): +++ | Aggregation of S. gordonii ([1]; substance 1-100 mM, pH co): +++

Heparan sulfate
Aggregation of E. coli ([1]; substance 1-5 mg/ml, pH co): − | Aggregation of S. gordonii ([1]; substance 1-5 mg/ml, pH co): −

CCN(CC)N=O [N-nitrosodiethylamine (DEN), N-nitrosodiethylamine]
Aggregation of E. coli ([1]; substance 1-50 mM, pH co): +++ | Aggregation of S. gordonii ([1]; substance 1-50 mM, pH co): +++ | Aggregation of E. coli ([1]; substance 100-500 mM, pH co): ++ | Aggregation of S. gordonii ([1]; substance 100-500 mM, pH co): ++

[Na+].[OH-] [NaOH]
Aggregation of E. coli ([1]; substance 5-50 mM, pH co): +++ | Aggregation of S. gordonii ([1]; substance 5-50 mM, pH co): +++

Nc1nc2c(ncn2[C@H]2C[C@H](O)[C@@H](COP(=O)(O)OP(=O)(O)OP(=O)(O)O)O2)c(=O)[nH]1 [dGTP]
Aggregation of E. coli ([1]; substance 1-8 mM, pH co): ++ | Aggregation of S. gordonii ([1]; substance 1-8 mM, pH co): ++

Chondroitin sulfate B
Aggregation of E. coli ([1]; substance 1-5 mg/ml, pH co): − | Aggregation of S. gordonii ([1]; substance 1-5 mg/ml, pH co): −

[Ba+2].[OH-].[OH-] [BaOH]
Aggregation of E. coli ([1]; substance 5-50 mM, pH co): +++ | Aggregation of S. gordonii ([1]; substance 5-50 mM, pH co): +++

Aprolinin
Aggregation of E. coli ([1]; substance 1-5 mg/ml, pH co): +++ | Aggregation of S. gordonii ([1]; substance 1-5 mg/ml, pH co): +++

OC[C@H]1O[C@@](CO)(O[C@H]2O[C@H](CO)[C@@H](O)[C@H](O)[C@H]2O)[C@@H](O)[C@@H]1O [Sucrose]
Aggregation of E. coli ([1]; substance 1-500 mM, pH co): +++ | Aggregation of S. gordonii ([1]; substance 1-500 mM, pH co): +++

Nc1ccn([C@H]2C[C@H](O)[C@@H](COP(=O)(O)OP(=O)(O)OP(=O)(O)O)O2)c(=O)n1 [dCTP]
Aggregation of E. coli ([1]; substance 1-8 mM, pH co): ++ | Aggregation of S. gordonii ([1]; substance 1-8 mM, pH co): ++

dextran
inhibition of rDMBT1 binding to immobilized HIV-gp120 [3]: but not dextran, which lacks the sulfate groups, exerted an inhibitory effect

CN=[N+](C)[O-] [Azoxymethane (AOM), Azoxymethane]
Aggregation of E. coli ([1]; substance 1-500 mM, pH co): +++ | Aggregation of S. gordonii ([1]; substance 1-500 mM, pH co): +++

Nc1ncnc2c1ncn2[C@H]1C[C@H](O)[C@@H](COP(=O)(O)OP(=O)(O)OP(=O)(O)O)O1 [dATP]
Aggregation of E. coli ([1]; substance 1-8 mM, pH co): ++ | Aggregation of S. gordonii ([1]; substance 1-8 mM, pH co): ++

NC(=O)CC[C@H](N)C(=O)O [Glutamine]
Aggregation of E. coli ([1]; substance 1-250 mM, pH co): +++ | Aggregation of S. gordonii ([1]; substance 1-250 mM, pH co): +++

O=P([O-])(O)O.[K+] [KH2 PO4]
Aggregation of E. coli ([1]; substance 1-10 mM, pH co): + | Aggregation of S. gordonii ([1]; substance 1-10 mM, pH co): +

NH2-QGRVEVLYRGSWGTVC-COOH (H-QGRVEVLYRGSWGTVC-OH) [DMBT1-SRCRP2]
binding of Salmonella typhimurium chemotypes [2]: Enhanced binding of the Rd1 and Re chemotype

Source: US8017124B2, “Use of DMBT1 for capturing sulphate and phosphate group exposing agents” (priority 2004, dated 2011)
